# In US20260256792A1, “TREATMENT OF CHRONIC SPONTANEOUS URTICARIA BY ADMINISTERING (R)-2-[3-[4-AMINO-3-(2-FLUORO-4-PHENOXY-PHENYL)PYRAZOLO[3,4-D]PYRIMIDIN-1-YL]PIPERIDINE-1-CARBONYL]-4-METHYL-4-[4-(OXETAN-3-YL)PIPERAZIN-1-YL]PENT-2-ENENITRILE” (priority 2023, published 2026):
# Test system: angioedema in CSU patients
# Assay: Phase 2 CSU study: angioedema activity score over 7 days (AAS7)
# Type: in vivo, human
# Details: 400 mg BID; for AAS7 % Change difference for rilzabrutinib vs. placebo LS Mean (95% CI) / AAS7 % Change from baseline LS Mean (SE) / AAS7 Change difference for rilzabrutinib vs. placebo LS Mean (95% CI) / AAS7 Change from baseline LS Mean (SE) / AAS7 Post-baseline Mean (SD) / AAS7 = 0, Non-responder n (%) / AAS7 = 0, OR (95% CI) for rilzabrutinib vs. placebo / AAS7 = 0, RRD (%) for rilzabrutinib vs. placebo (95% CI) / Participants with AAS7 = 0, Responder n (%): angioedema at baseline; for Non-responder n (%), AAS7 = 0 / RRD (%) for rilzabrutinib vs. placebo (95% CI), AAS7 = 0 / Responder n (%), AAS7 = 0 / OR (95% CI) for rilzabrutinib vs. placebo, AAS7 = 0: outlier removed
# Description: The study comprises a 12 week, randomized, double-blind, placebo-controlled, multi-center, dose-ranging efficacy and safety phase, followed by a 40 week open label extension (OLE) phase (see FIG. 1). The study consists of three phases and an optional OLE phase. […] The weekly angioedema activity score (AAS7) was proposed as a tertiary endpoint. […] Patients were to complete the AAS using the e-diary. The e-diary was to be used once daily on the same time of each day recording of participant's answers to the angioedema activity score over 7 days (AAS7) questionnaire.
smiles,measurement,setting,value
"CC(C)(C=C(C#N)C(=O)N1CCC[C@@H](n2nc(-c3ccc(Oc4ccccc4)cc3F)c3c(N)ncnc32)C1)N1CCN(C2COC2)CC1 [rilzabrutinib, (R)-2-[3-[4-amino-3-(2-fluoro-4-phenoxy-phenyl)pyrazolo[3,4-d]pyrimidin-1-yl]piperidine-1-carbonyl]-4-methyl-4-[4-(oxetan-3-yl)piperazin-1-yl]pent-2-enenitrile]",AAS7 % Change difference for rilzabrutinib vs. placebo LS Mean (95% CI),"Week 1, ITT","−40.37 (−70.92, −9.83) %"
same,AAS7 % Change from baseline LS Mean (SE),"Week 1, ITT",−60.34 (9.85) %
same,AAS7 Change difference for rilzabrutinib vs. placebo LS Mean (95% CI),"Week 1, ITT","−9.84 (−22.84, 3.16)"
same,AAS7 Change from baseline LS Mean (SE),"Week 1, ITT",−24.34 (4.19)
same,AAS7 Post-baseline Mean (SD),"Week 1, ITT",23.35 (30.86)
same,"Non-responder n (%), AAS7 = 0","Week 1, omalizumab-naïve",16 (45.7) n (%)
same,"RRD (%) for rilzabrutinib vs. placebo (95% CI), AAS7 = 0","Week 1, omalizumab-naïve",23.4 %
same,"Responder n (%), AAS7 = 0","Week 1, omalizumab-naïve",19 (54.3) n (%)
same,AAS7 % Change difference for rilzabrutinib vs. placebo LS Mean (95% CI),"Week 1, omalizumab-naïve","−42.17 (−75.41, −8.93) %"
same,"AAS7 = 0, Non-responder n (%)","Week 1, omalizumab-naïve",15 (57.7) n (%)
same,"AAS7 = 0, OR (95% CI) for rilzabrutinib vs. placebo","Week 1, omalizumab-naïve",20.850
same,"AAS7 = 0, RRD (%) for rilzabrutinib vs. placebo (95% CI)","Week 1, omalizumab-naïve",35.1 %
same,AAS7 Change difference for rilzabrutinib vs. placebo LS Mean (95% CI),"Week 1, omalizumab-naïve","−9.69 (−23.74, 4.37)"
same,AAS7 Change from baseline LS Mean (SE),"Week 1, omalizumab-naïve",−23.46 (4.42)
same,AAS7 Post-baseline Mean (SD),"Week 1, omalizumab-naïve",25.15 (31.33)
same,"Participants with AAS7 = 0, Responder n (%)","Week 1, omalizumab-naïve",11 (42.3) n (%)
same,AAS7 % Change difference for rilzabrutinib vs. placebo LS Mean (95% CI),"Week 2, ITT","−8.15 (−40.12, 23.82) %"
same,AAS7 % Change from baseline LS Mean (SE),"Week 2, ITT",−49.52 (12.60) %
same,AAS7 Change difference for rilzabrutinib vs. placebo LS Mean (95% CI),"Week 2, ITT","−5.96 (−17.22, 5.30)"
same,AAS7 Change from baseline LS Mean (SE),"Week 2, ITT",−26.86 (4.43)
same,AAS7 Post-baseline Mean (SD),"Week 2, ITT",22.75 (28.74)
same,"Non-responder n (%), AAS7 = 0","Week 2, omalizumab-naïve",18 (51.4) n (%)
same,"OR (95% CI) for rilzabrutinib vs. placebo, AAS7 = 0","Week 2, omalizumab-naïve",1.366
same,"RRD (%) for rilzabrutinib vs. placebo (95% CI), AAS7 = 0","Week 2, omalizumab-naïve",8.2 %
same,"Responder n (%), AAS7 = 0","Week 2, omalizumab-naïve",17 (48.6) n (%)
same,AAS7 % Change difference for rilzabrutinib vs. placebo LS Mean (95% CI),"Week 2, omalizumab-naïve","−9.47 (−44.02, 25.08) %"
same,AAS7 % Change from baseline LS Mean (SE),"Week 2, omalizumab-naïve",−46.69 (13.31) %
same,"AAS7 = 0, Non-responder n (%)","Week 2, omalizumab-naïve",17 (65.4) n (%)
same,"AAS7 = 0, OR (95% CI) for rilzabrutinib vs. placebo","Week 2, omalizumab-naïve",2.012
same,"AAS7 = 0, RRD (%) for rilzabrutinib vs. placebo (95% CI)","Week 2, omalizumab-naïve",14.6 %
same,AAS7 Post-baseline Mean (SD),"Week 2, omalizumab-naïve",24.57 (29.12)
same,"Participants with AAS7 = 0, Responder n (%)","Week 2, omalizumab-naïve",9 (34.6) n (%)
same,AAS7 % Change difference for rilzabrutinib vs. placebo LS Mean (95% CI),"Week 3, ITT","−7.33 (−47.50, 32.83) %"
same,AAS7 % Change from baseline LS Mean (SE),"Week 3, ITT",−55.85 (15.71) %
same,AAS7 Change difference for rilzabrutinib vs. placebo LS Mean (95% CI),"Week 3, ITT","−11.42 (−22.95, 0.12)"
same,AAS7 Change from baseline LS Mean (SE),"Week 3, ITT",−35.57 (4.51)
same,AAS7 Post-baseline Mean (SD),"Week 3, ITT",14.81 (20.54)
same,"Non-responder n (%), AAS7 = 0","Week 3, omalizumab-naïve",15 (42.9) n (%)
same,"OR (95% CI) for rilzabrutinib vs. placebo, AAS7 = 0","Week 3, omalizumab-naïve",2.357
same,"RRD (%) for rilzabrutinib vs. placebo (95% CI), AAS7 = 0","Week 3, omalizumab-naïve",21.6 %
same,"Responder n (%), AAS7 = 0","Week 3, omalizumab-naïve",20 (57.1) n (%)
same,AAS7 % Change difference for rilzabrutinib vs. placebo LS Mean (95% CI),"Week 3, omalizumab-naïve","−5.01 (−48.85, 38.83) %"
same,AAS7 % Change from baseline LS Mean (SE),"Week 3, omalizumab-naïve",−52.68 (16.72) %
same,"AAS7 = 0, Non-responder n (%)","Week 3, omalizumab-naïve",15 (57.7) n (%)
same,"AAS7 = 0, OR (95% CI) for rilzabrutinib vs. placebo","Week 3, omalizumab-naïve",2.703
same,"AAS7 = 0, RRD (%) for rilzabrutinib vs. placebo (95% CI)","Week 3, omalizumab-naïve",20.8 %
same,AAS7 Post-baseline Mean (SD),"Week 3, omalizumab-naïve",15.95 (20.90)
same,"Participants with AAS7 = 0, Responder n (%)","Week 3, omalizumab-naïve",11 (42.3) n (%)
same,AAS7 % Change from baseline LS Mean (SE),"Week 4, ITT",−60.60 (13.93) %
same,AAS7 Change difference for rilzabrutinib vs. placebo LS Mean (95% CI),"Week 4, ITT","−12.73 (−23.88, −1.58)"
same,AAS7 Change from baseline LS Mean (SE),"Week 4, ITT",−35.34 (4.34)
same,AAS7 Post-baseline Mean (SD),"Week 4, ITT",13.70 (17.64)
same,"Non-responder n (%), AAS7 = 0","Week 4, omalizumab-naïve",17 (48.6) n (%)
same,"OR (95% CI) for rilzabrutinib vs. placebo, AAS7 = 0","Week 4, omalizumab-naïve",1.361
same,"RRD (%) for rilzabrutinib vs. placebo (95% CI), AAS7 = 0","Week 4, omalizumab-naïve",7.4 %
same,"Responder n (%), AAS7 = 0","Week 4, omalizumab-naïve",18 (51.4) n (%)
same,AAS7 % Change difference for rilzabrutinib vs. placebo LS Mean (95% CI),"Week 4, omalizumab-naïve","−28.19 (−67.14, 10.77) %"
same,AAS7 % Change from baseline LS Mean (SE),"Week 4, omalizumab-naïve",−58.12 (14.75) %
same,"AAS7 = 0, Non-responder n (%)","Week 4, omalizumab-naïve",15 (57.7) n (%)
